One compound from patent publication US12172957B2, “Attractant composition for the species Delottococcus aberiae, methods for the monitoring, detection and/or control of the pest” (Ecologia y Proteccion Agricola, S.L., priority 2018, dated 2024) can be followed below.

SMILES strings stand for the structures. Values joined by “and” are separate entries in the source; they are usually repeats but may differ in a detail not shown here. Equal values may be shown once.

The test system of data set [1] is male Delottococcus aberiae. In words: Field tests on the attraction response: baited adhesive traps in a citrus plot. The class given is in vivo. Here is the method:
The response in male Delottococcus aberiae to (4,5,5-trimethyl-3-methylenecyclopent-1-en-1-yl)methyl acetate was evaluated in two field tests performed in a citrus var. Marisol plot, located in Sagunto (Valencia), during the months of May-June 2018. In a first test, 3 blocks of 2 devices were installed, said devices being: (A) a device with carrier, without attractant substance and with a trap consisting of a white sheet with adhesive, (B) a device with carrier with bait containing 500 μg of (4,5,5-trimethyl-3-methylenecyclopent-1-en-1-yl)methyl acetate and a trap consisting of a white sheet with adhesive (95×150 mm) (in each block, the devices were located at a distance of 20 m from one another, whereas the distance between blocks was at least 30 m. The carriers loaded with (4,5,5-trimethyl-3-methylenecyclopent-1-en-1-yl)methyl acetate were septum-type carriers and were inserted in the centre of the trap.
The captures obtained in each of the traps were checked each week and the captured individuals were taken to the laboratory to be identified and counted. Traps in the same block were rotated each week.
The number of males captured per trap and day was compared by means of an analysis of variance (ANOVA; LSD test for comparison of the means, P<0.05), subject to transformation (In(x+1)) of the data to homogenise the variance.
In a second test, this was performed in the same way as test 1, but device B included bait containing 100 μg of (4,5,5-trimethyl-3-methylenecyclopent-1-en-1-yl)methyl acetate.

Data set [2] deals with male Delottococcus aberiae. In words: Choice test in glass Petri dish: response of males to the compound vs. pentane control, laboratory conditions. The class given is in vivo. The conditions noted are these: 10 μl on 1 cm^2 filter paper vs. pentane negative control; 10 min; χ2 test P<0.05; FIG. 2. Here is the method: The response of male Delottococcus aberiae to (4,5,5-trimethyl-3-methylenecyclopent-1-en-1-yl)methyl acetate was evaluated in the Centro de Ecologia Quimica Agricola (UPV, Valencia) by means of a test on the activity in a glass Petri dish. The tests were performed with light and under the same breeding conditions, at 23±2° C. and 60-70% relative humidity.
For these tests, males from breeding were also used, separated on Petri dishes right when the cottony cocoon begins to form. After pupating and finally emerging from the cocoon, the insects are observed under a binocular scope to confirm their state before being selected for the test.
The method used is described below: for each test, there were placed at opposite ends of the Petri dish a sample of (4,5,5-trimethyl-3-methylenecyclopent-1-en-1-yl)methyl acetate and a negative control (solvent pentane without activity), arranged on 1 cm^2 filter paper in an amount of 10 μl. Immediately, groups of males are carefully deposited on the test plate with the aid of a very fine brush. Therefore, the behaviour of the individuals with respect to the sources of stimulation is recorded for 10 min. Once the test has ended, the insects are discarded, such that each insect is exposed to olfactory stimuli only once. The obtained data were analysed by means of a Chi-squared test (χ2 test, P<0.05).

Data set [3] is described as follows: Analysis of the attractant content of the septum carriers after 20 days in the field (emission). The format is physicochemical. Here is the method: Therefore, the mean emission for those 20 days is 9.45±2.13 μg/day. […] Therefore, the mean emission for those 20 days is 0.55±0.42 μg/day.
The mark [4] stands for this setting: first field test, tested load 300 μg per septa.

As to `C=C1C=C(COC(C)=O)C(C)(C)C1C` (racemic) [Pheromone, (4,5,5-trimethyl-3-methylenecyclopent-1-en-1-yl)methyl acetate], in data set [1] (first field test, Table 1, bait 500 μg (300 μg per septa), single traps), the “Male captures per trap and day” value is 61.0 and 52.7 and 58.0. For the same compound, the “Average field captures per trap and day” value in data set [1] (first field test, bait 500 μg (300 μg elsewhere in the source), controls 0.11, P<0.001) is 57.22; in data set [1] (second field test, bait 100 μg, controls 0.06, P<0.036) it was 9.14. In addition, the “Attraction power of baited devices vs. traps without attractant” value in data set [1] (first field test, septum bait, white adhesive trap, ANOVA, LSD P<0.05, FIG. 3) is reported as “significantly higher attraction power”. Also, the “Response of male Delottococcus aberiae in the test of choice” value in data set [2] was “significant attractant response”. Also, the “Final content of the substance after 20 days” value in data set [3] (setting [4]) worked out at 109 µg; in data set [3] (second field test, bait 100 μg) it was 91 µg. Further, the “Mean emission for those 20 days” value in data set [3] (setting [4]) worked out at 9.45 ± 2.13 µg/day; in data set [3] (second field test, bait 100 μg), 0.55 ± 0.42 µg/day.
